What is called EC50 is the concentration that produces a half-maximal response.

Here are results for 3 compounds from patent US6083977A, “Trienoic retinoid compounds and methods” (Ligand Pharmaceuticals Incorporated, priority 1995, dated 2000).

Molecules are shown by their SMILES.

The target in experiment [1] is T1, RARα (Homo sapiens, UniProt P10276).
T1 construct: expressed in transfected cells; host or cells: CV-1 (African green monkey kidney fibroblasts)
T1 sequence (P10276 1-462): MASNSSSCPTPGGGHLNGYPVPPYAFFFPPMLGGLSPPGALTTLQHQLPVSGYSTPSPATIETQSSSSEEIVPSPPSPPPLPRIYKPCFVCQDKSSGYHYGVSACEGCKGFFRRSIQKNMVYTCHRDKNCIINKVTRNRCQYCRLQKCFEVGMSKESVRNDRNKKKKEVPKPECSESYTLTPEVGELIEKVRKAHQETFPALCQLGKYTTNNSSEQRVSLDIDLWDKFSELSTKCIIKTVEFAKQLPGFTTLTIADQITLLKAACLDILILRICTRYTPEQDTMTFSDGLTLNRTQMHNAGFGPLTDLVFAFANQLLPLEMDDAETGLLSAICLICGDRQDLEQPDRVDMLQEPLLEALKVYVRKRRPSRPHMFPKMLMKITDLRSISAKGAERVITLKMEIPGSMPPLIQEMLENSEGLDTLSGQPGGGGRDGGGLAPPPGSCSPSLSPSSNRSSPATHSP
The experiment in a line: Co-transfection assay (CV-1 cells), RARα agonist activity. Type of experiment: cell-based. Particulars: read-out: RARα Pot (potency, EC50).

Experiment [2] has as its target T2, RARβ (Homo sapiens, UniProt P10826).
T2 construct: expressed in transfected cells; host or cells: CV-1 (African green monkey kidney fibroblasts)
T2 sequence (P10826 1-448 isoform P10826-2): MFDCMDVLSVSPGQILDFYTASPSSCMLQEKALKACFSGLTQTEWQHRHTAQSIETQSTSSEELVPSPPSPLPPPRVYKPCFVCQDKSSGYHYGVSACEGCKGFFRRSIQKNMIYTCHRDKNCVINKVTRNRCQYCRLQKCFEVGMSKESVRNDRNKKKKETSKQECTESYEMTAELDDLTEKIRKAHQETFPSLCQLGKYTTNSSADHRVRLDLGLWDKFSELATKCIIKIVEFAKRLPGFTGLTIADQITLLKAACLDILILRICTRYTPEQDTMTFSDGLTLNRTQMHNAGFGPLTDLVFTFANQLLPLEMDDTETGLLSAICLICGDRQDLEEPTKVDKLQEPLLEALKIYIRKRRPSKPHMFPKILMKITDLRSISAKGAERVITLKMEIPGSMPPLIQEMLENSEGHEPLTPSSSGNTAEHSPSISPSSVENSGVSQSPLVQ
As to the kind of experiment: Co-transfection assay (CV-1 cells), RARβ agonist activity. Type of experiment: cell-based. Particulars: read-out: RARβ Pot (potency, EC50).

For experiment [3], the target named is T3, RARγ (Homo sapiens, UniProt P13631).
T3 construct: expressed in transfected cells; host or cells: CV-1 (African green monkey kidney fibroblasts)
T3 sequence (P13631 1-454): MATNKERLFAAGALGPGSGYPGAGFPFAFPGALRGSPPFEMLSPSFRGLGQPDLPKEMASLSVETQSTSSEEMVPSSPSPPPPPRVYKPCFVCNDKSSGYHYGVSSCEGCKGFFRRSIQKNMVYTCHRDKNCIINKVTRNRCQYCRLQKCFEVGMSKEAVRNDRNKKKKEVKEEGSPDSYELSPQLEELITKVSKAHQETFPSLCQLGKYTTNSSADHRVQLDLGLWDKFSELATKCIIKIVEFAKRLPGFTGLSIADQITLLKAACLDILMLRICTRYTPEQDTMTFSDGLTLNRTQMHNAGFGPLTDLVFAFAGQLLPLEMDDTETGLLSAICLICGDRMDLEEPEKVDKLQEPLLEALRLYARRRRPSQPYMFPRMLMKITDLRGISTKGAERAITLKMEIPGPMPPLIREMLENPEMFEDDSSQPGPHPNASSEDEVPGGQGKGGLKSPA
As to the kind of experiment: Co-transfection assay (CV-1 cells), RARγ agonist activity. Type of experiment: cell-based.

Experiment [4] has as its target T4, RXRα (Homo sapiens, UniProt P19793).
T4 construct: expressed in transfected cells; host or cells: CV-1 (African green monkey kidney fibroblasts)
T4 sequence (P19793 1-462): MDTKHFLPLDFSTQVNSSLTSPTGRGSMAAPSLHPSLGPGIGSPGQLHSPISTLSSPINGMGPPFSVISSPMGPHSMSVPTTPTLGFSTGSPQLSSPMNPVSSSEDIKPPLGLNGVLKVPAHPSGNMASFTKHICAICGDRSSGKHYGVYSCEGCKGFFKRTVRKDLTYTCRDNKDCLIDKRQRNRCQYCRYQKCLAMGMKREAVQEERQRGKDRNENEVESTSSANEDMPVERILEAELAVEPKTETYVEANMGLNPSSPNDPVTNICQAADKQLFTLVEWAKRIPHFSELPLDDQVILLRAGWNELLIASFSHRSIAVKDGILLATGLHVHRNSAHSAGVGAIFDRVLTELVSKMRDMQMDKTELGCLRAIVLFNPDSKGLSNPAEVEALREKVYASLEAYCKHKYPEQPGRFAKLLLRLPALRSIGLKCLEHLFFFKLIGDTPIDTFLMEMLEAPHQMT
The experiment in a line: Co-transfection assay (CV-1 cells), RXRα agonist activity. Type of experiment: cell-based. Particulars: read-out: RXRα Pot (potency, EC50).

Experiment [5] deals with T5, RXRβ (Mus musculus, UniProt P28704).
T5 construct: expressed in transfected cells; host or cells: CV-1 (African green monkey kidney fibroblasts)
T5 sequence (P28704 1-520): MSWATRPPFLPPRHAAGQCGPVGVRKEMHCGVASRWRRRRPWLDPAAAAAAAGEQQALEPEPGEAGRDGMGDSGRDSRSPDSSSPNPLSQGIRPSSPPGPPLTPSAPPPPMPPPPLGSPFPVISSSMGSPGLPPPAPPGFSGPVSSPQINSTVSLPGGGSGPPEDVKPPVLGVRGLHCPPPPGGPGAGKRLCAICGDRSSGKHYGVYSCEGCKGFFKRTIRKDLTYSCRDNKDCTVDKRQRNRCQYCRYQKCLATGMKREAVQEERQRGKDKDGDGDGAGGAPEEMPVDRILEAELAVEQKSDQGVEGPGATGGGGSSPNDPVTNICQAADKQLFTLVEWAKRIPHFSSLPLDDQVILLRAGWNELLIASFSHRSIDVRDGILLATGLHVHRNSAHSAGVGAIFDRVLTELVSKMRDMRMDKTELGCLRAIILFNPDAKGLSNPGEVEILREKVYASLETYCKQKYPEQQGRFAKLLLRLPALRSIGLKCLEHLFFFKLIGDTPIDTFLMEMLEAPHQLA
As to the kind of experiment: Co-transfection assay (CV-1 cells), RXRβ agonist activity. Type of experiment: cell-based. Particulars: read-out: RXRβ Pot (potency, EC50).

The target in experiment [6] is T6, RXRγ (Mus musculus, UniProt P28705).
T6 construct: expressed in transfected cells; host or cells: CV-1 (African green monkey kidney fibroblasts)
T6 sequence (P28705 1-463): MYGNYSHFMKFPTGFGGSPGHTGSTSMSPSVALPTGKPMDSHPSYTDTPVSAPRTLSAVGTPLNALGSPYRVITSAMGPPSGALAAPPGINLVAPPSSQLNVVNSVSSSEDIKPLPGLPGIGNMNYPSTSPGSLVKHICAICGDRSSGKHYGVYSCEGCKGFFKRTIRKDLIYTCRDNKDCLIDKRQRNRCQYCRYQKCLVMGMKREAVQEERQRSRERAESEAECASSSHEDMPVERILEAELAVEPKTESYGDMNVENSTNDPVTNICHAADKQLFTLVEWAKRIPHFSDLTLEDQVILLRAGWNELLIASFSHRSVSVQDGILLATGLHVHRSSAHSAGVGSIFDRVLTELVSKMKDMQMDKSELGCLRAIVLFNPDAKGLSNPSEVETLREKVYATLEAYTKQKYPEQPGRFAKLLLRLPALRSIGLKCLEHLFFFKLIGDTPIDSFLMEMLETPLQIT
As to the kind of experiment: Co-transfection assay (CV-1 cells), RXRγ agonist activity. Type of experiment: cell-based. Particulars: read-out: RXRγ Pot (potency, EC50).

Experiment [7] concerns RARs. As to the kind of experiment: Co-transfection assay, RAR subfamily. Type of experiment: cell-based, human. How it is done:
(§1) Utilizing the "cis-trans" or "co-transfection" assay described by Evans et al., Science, 240:889-95 (May 13, 1988), the disclosure of which is herein incorporated by reference, the retinoid compounds of the present invention were tested and found to have strong, specific activity as either selective RAR agonists, selective RXR agonists, or as pan-agonist activators of both RAR and RXR receptors. This assay is described in further detail in U.S. Pat. Nos. 4,981,784 and 5,071,773, the disclosures of which are incorporated herein by reference.
The co-transfection assay provides a method for identifying functional agonists which mimic, or antagonists which inhibit, the effect of native hormones, and quantifying their activity for responsive IR proteins. In this regard, the co-transfection assay mimics an in vivo system in the laboratory. Importantly, activity in the co-transfection assay correlates very well with known in vivo activity, such that the co-transfection assay functions as a qualitative and quantitative predictor of a tested compounds in vivo pharmacology. See, e.g., T. Berger et al. 41 J. Steroid Biochem. Molec. Biol. 773 (1992), the disclosure of which is herein incorporated by reference.
In the co-transfection assay, a cloned cDNA for an IR (e.g., human RARα, RARβ, RXRγ) under the control of a constitutive promoter (e.g., the SV 40 promoter) is introduced by transfection (a procedure to induce cells to take up foreign genes) into a background cell substantially devoid of endogenous IRs. This introduced gene directs the recipient cells to make the IR protein of interest. A second gene is also introduced (co-transfected) into the same cells in conjunction with the IR gene. This second gene, comprising the cDNA for a reporter protein, such as firefly luciferase (LUC), is controlled by an appropriate hormone responsive promoter containing a hormone response element (HRE). This reporter plasmid functions as a reporter for the transcription-modulating activity of the target IR. Thus, the reporter acts as a surrogate for the products (mRNA then protein) normally expressed by a gene under control of the target receptor and its native hormone.
The co-transfection assay can detect small molecule agonists or antagonists of target IRs. Exposing the transfected cells to an agonist ligand compound increases reporter activity in the transfected cells. This activity can be conveniently measured, e.g., by increasing luciferase production, which reflects compound-dependent, IR-mediated increases in reporter transcription. […] . Increasing concentrations of a suspected antagonist will decrease the reporter signal (e.g., luciferase production). The co-transfection assay is therefore useful to detect both agonists and antagonists of specific IRs. Furthermore, it determines not only whether a compound interacts with a particular IR, but whether this interaction mimics (agonizes) or blocks (antagonizes) the effects of the native regulatory molecules on target gene expression, as well as the specificity and strength of this interaction. […]

Experiment [8] deals with RAR and RXR receptors. As to the kind of experiment: Binding to the RAR and RXR receptors. Particulars: relative to ATRA (RAR) and 9-cis (RXR).
Experiment [9] concerns AML-193. As to the kind of experiment: Incorporation of 3H-thymidine, AML-193. Particulars: 96 h, read-out: TdR IC50 (50% inhibition of maximally observed thymidine incorporation).
The test system of experiment [10] is RXR. The experiment in a line: Co-transfection assay, RXR subfamily. Type of experiment: cell-based. How it is done: as §1
The co-transfection assay provides a method for identifying functional agonists which mimic, or antagonists which inhibit, the effect of native hormones, and quantifying their activity for responsive IR proteins. In this regard, the co-transfection assay mimics an in vivo system in the laboratory. Importantly, activity in the co-transfection assay correlates very well with known in vivo activity, such that the co-transfection assay functions as a qualitative and quantitative predictor of a tested compounds in vivo pharmacology. See, e.g., T. Berger et al. 41 J. Steroid Biochem. Molec. […]
The co-transfection assay can detect small molecule agonists or antagonists of target IRs. […] This activity can be conveniently measured, e.g., by increasing luciferase production, which reflects compound-dependent, IR-mediated increases in reporter transcription. […]

For `CCCC(O)c1cc(C(C)(C)C)cc(C(C)(C)C)c1` (centres unmarked) [Compound 19, 1-(3,5-Di-t-butylphenyl)butan-1-ol], the EC50 in [1] came out at 59 nM; in experiment [2], 23 nM; in [3] (co-transfection assay, CV-1 cells, read-out: RARγ Pot (potency, EC50)), 16 nM; in experiment [4], 127 nM; in experiment [5], 48 nM; in experiment [6], 56 nM.

For the compound `CC(/C=C/C=C(\C)c1cc(C(C)(C)C)cc(C(C)(C)C)c1)=C\C(=O)O` [Compound 9, (2E, 4E, 6E)-7-(3,5-Di-t-butylphenyl)-3-methylocta-2,4,6-trienoic acid], the “activity on RARγ (in words)” value in experiment [3] is listed as “sub-nanomolar activity”. Further, the “RAR activity (in words)” value in experiment [7] is given as “extremely potent RAR active compounds”. Moreover, in experiment [8], the “binding compared to ATRA and 9-cis (in words)” value is on record as “equal or superior binding”. Also, in [9], the IC50 was 0.1 nM.

On to `CCC/C(=C/C=C/C(C)=C/C(=O)O)c1cc(C(C)(C)C)cc(C(C)(C)C)c1` [Compound 28, (2E. 4E 6Z)-7-(3,5-Di-t-butylphenyl)-3-methyldeca-2,4,6-trienoic acid], for which the “RXR activity (in words)” value in experiment [10] was “very potent and selective RXR active compound”.
